In PMC2992454 (ACS chemical neuroscience, 2010):

Columns and labels:
[1] = test system: 20S proteasome; details: localize inside the 20S subunit along the active proteolytic site; ref [14], [15]; cited from earlier work
[2] = target: h20S proteasome, chymotrypsin-like activity (Homo sapiens, UniProt P28074); assay: Kinetic analysis of proteasome chymotrypsin-like activity with or without Aβ; format: biochemical; details: pH 7.8, 37°C; for Vmax: LLVY-AMC 0–200 µM, 40 ng h20S in 100 µL

| Substance | effect on chymotrypsin-like activity of the proteasome [1] | Vmax ([2]; 0 µM Aβ(1–42)) | Vmax ([2]; 1 µM oligomeric Aβ(1–42)) | Vmax ([2]; 5 µM oligomeric Aβ(1–42)) | Vmax, lower end over all Aβ concentrations ([2]; oligomeric Aβ(1–42) 0–5 µM, Table 1: 0 and 0.5 µM Aβ, LLVY-AMC) | Vmax, upper end over all Aβ concentrations ([2]; oligomeric Aβ(1–42) 0–5 µM, Table 1: 5 µM Aβ, LLVY-AMC) |
| --- | --- | --- | --- | --- | --- | --- |
| Aβ(1–40): Aβ(1–40) peptides | inhibit the chymotrypsin-like activity of the proteasome |  |  |  |  |  |
| N-Succinyl-Leu-Leu-Val-Tyr-AMC [LLVY-AMC] |  | 3.1 ± 0.1 x10^−2µM/min | 3.5 ± 0.2 x10^−2µM/min | 3.7 ± 0.3 x10^−2µM/min | 0.031 ± 0.001 µM/min | 0.037 ± 0.003 µM/min |
